# How the values were obtained:
# [1] = test system: Blood stream form T. brucei CA427; test: Trypanocidal activity against cultured blood stream form T. brucei (Example 2); assay type: cell-based, Trypanosoma brucei; conditions: for IC50: read-out: concentration at which fifty percent of parasites were killed (IC50)
# Method: Blood stream form T. brucei CA427 were grown in HMI-9 media to the cell density of 10^6. The cells were then transferred to 96 well plates with the addition of different concentrations of MAL3-101, MAL3-51, CJ-21,058 or equisetin. In controls, DMSO was added. Cell density was calculated at the end of 24 hours, and the graph was plotted.
# Cell culture. Blood stream form T. brucei CA427 was cultured in HMI-9 medium (Hirumi and Hirumi, 1994, Parasitol Today; 10:80-84) to a maximum density of 10^6/ml. For use in drug sensitivity studies, cells were seeded at […], and one hundred microliters added to each well of a 96-well plate, with or without test compounds at stated concentrations, as discussed in Brief Descriptions of FIGS. 1-4. In controls, DMSO, the solvent for the compounds, was added. Cells were counted after 24 or 48 hours, using a hemocytometer, and the data graphed. All experiments were performed in triplicates.
# [2] = test system: T. brucei microsomes (TbRM); test: Import of full length VSG—117 into TbRM with T. brucei cytosol (Example 10); assay type: biochemical, Trypanosoma brucei
# Method: FIGS. 18A and 18B. MAL3-101, equisetin, and CJ-21,058 inhibit VSG translocation into TbRM. FIG. 18A presents the protocol used for import of VSG—117. In FIG. 18B, VSG—117 mRNA was translated in rabbit reticulocyte lysate with 1.5 equivalents T. brucei cytosol pretreated with MAL3-101 (3 μM), MAL3-51 (10 μM), CJ-21,058 (20 μM) or equisetin (50 μM)) for 60 minutes. The reaction mixtures received cycloheximide (50 μg/ml, final concentration) and were incubated with TbRM (one equivalent). After incubation at 37° C. for 60 minutes, reaction mixtures were transferred to an ice-water bath and treated with proteinase K (30 μg/ml, final concentration) for 60 minutes. Proteins were resolved by SDS-PAGE and detected by phosphorimaging. Lane 1 is VSG—117 incubated with TbRM; lane 2 is VSG—117 digested with proteinase K after incubation with TbRM; lane 3 is VSG—117 incubated with MAL3-101 in the presence of TbRM; lane 4 is VSG—117 and TbRM incubated with MAL3-101 and then digested with proteinase K; lane 5 is VSG—117 incubated with MAL3-51 and TbRM; lane 6 is VSG—117 incubated with TbRM in the presence of equisetin; lane 7 is VSG—117 incubated with ThRM; lane 8 is VSG—117 incubated with equisetin and digested with proteinase K; lane 9 is VSG—117 incubated with CJ-21,058 and TbRM; lane 10 is VSG—117 incubated with TbRM and CJ-21,058 and digested with proteinase K. For quantitation, each proteasedigested sample was compared to a control experiment containing the drug but without protease addition. Thus, lane 2 is compared with lane 1 while lane 4 is compared to lane 3, and so on.
# Protein Import Into TbRM. Two μg of RNA encoding VSG—117 (or VSG_MVAT7) was translated in 30 μl of a reaction mixture containing 15 μl rabbit reticulocyte lysate, 60 μM amino acid mixture (-Met, -Cys), and 2.4 μCi [^35S]Promix. […] The gels were dried, and radioactive polypeptides were detected with a phosphorimager (Personal Molecular Imager FX, (BioRad). Data were quantified with QuantityOne software (BioRad), and graphs were plotted with DeltaGraph (Red Rock software). […]
Structure (SMILES),IC50 ([1]; cultured T. brucei) [µM],inhibition of VSG—117 translocation into TbRM ([2]; equisetin (50 μM in FIG. 18B legend)) [%],trypanocidal activity (in words) [1],concentration at which one hundred percent of parasites were killed (IC100) ([1]; cultured T. brucei) [nM],"VSG—117 protected from proteinase K ([2]; MAL3-101 present (3 μM in FIG. 18B legend), DMSO approximately 80%) [%]","inhibition of import of VSG—117 into TbRM compared to DMSO control ([2]; CJ-21,058 (20 μM in FIG. 18B legend)) [%]"
C/C=C/[C@@H]1C=C[C@@H]2C[C@H](C)CC[C@H]2[C@]1(C)/C(O)=C1/C(=O)[C@H](CO)N(C)C1=O [equisetin],3.3,95,,,,
CCCCCCN(C(=O)CCCCCN1C(=O)NC(c2ccc(-c3ccccc3)cc2)C(C(=O)OCc2ccccc2)=C1C)C(C(=O)NCCCC)c1ccc(OCC(=O)OC)c(C(=O)OC)c1 (centres unmarked) [MAL3-101],0.125,,killed T. brucei at sub-micromolar level,500,13,
"C/C=C/C1C(C)=CC2CC(C)CCC2C1(C)/C(O)=C1/C(=O)C(CO)N(C)C1=O (centres unmarked) [CJ-21,058]",7,,,,,70
